US8614218B2, “Fused bicyclic pyrimidines” (Bayer Intellectual Property GmbH, priority 2007, dated 2013)

Tests used:
Format in all cases: cell-based
A549 cells = assay: Cellular proliferation/cytotoxicity assay (Alamar Blue), A549; conditions: Homo sapiens, 72 h, Alamar Blue (Resazurin), read-out: Anti-proliterative/Cytotoxic activity (A549 cells)
Description: (§1) Cellular Proliferation/Cytotoxicity Assay:
(§2) The anti-proliferative activity of the compounds as described herein, is evaluated using the OvCAR3, HCT116 and A549 cell lines and the Alamar Blue (Resazurin) cell viability assay (O'Brien et al. Eur J Biochem 267, 5421-5426, 2000). Resazurin is reduced to the fluorescent resorufin by cellular dehydrogenase activity, correlating with viable, proliferating cells. Test compounds are dissolved as 10 mM solutions in DMSO and subsequently diluted. Cells like HCT116 or A549 cells were seeded into 96 well flat bottom plates at a density of 10000 cells/well (OvCAR3 cells), 1000 cells/well (HCT116 cells) or 2000 cells/well (A549 cells) in a volume of 200 μl/well. 24 hours after seeding, 1 μl each of the compound dilutions are added into each well of the 96 well plates. Each compound dilution is tested as at least as duplicates. Wells containing untreated control cells were filled with 200 μl DMEM (Dulbecco's Modified Eagle Medium) containing 0.5 vol % v:v DMSO. The cells are then incubated with the substances for 72 h at 37° C. in a humidified atmosphere containing 5 vol % CO2. To determine the viability of the cells, 20 μl of a Resazurin solution (90 mg/l) are added. After 4 h incubation at 37° C., the fluorescence is measured by extinction at λ=544 nm and an emission of λ=590 nm (Wallac Victor2; Perkin Elmer, USA). For the calculation of the cell viability, the emission value from untreated cells is set as 100% viability and the fluorescence intensity of treated cells are set in relation to the values of untreated cells. Viabilities are expressed as % values. The corresponding IC50 values of the compounds for cytotoxic activity are determined from the concentration-effect curves by means of non-linear regression. The analysis of the data is performed using a biostatistical program (GraphPad Prism, USA).
(§3) Representative IC50 values for anti-proliferative/cytotoxic potency determined in the aforementioned assay follow from the following table, in which the numbers of the compound correspond to the numbers of the examples.

OvCAR3 cells = assay: Cellular proliferation/cytotoxicity assay (Alamar Blue), OvCAR3; conditions: Homo sapiens, OVCAR-3, 72 h, Alamar Blue (Resazurin), read-out: Anti-proliferative/Cytotoxic activity (OvCAR3 cells)
Description: as §1, §2, §3

phospho-Akt (Ser473) = assay: Cellular PI3K/Akt pathway assay (phospho-Akt ELISA); conditions: Homo sapiens, MCF7 cells, β-Heregulin stimulated, 48 h incubation
From the text: Cellular PI3K/Akt Pathway Assay
In order to study the cellular activity of the compounds according to the present invention, an Enzyme Linked Immunosorbent Assay (ELISA)-based assay has been used specific phospho-AKT. The assay is based on a Sandwich ELISA kit (PathScan™ Phospho-Akt1 (Ser473); Cell Signaling, USA; #7160). The ELISA Kit detects endogenous levels of phosphorylated Akt protein. A phospho-Akt (Ser473) antibody (Cell Signaling, USA; #9271) has been coated onto the microwells. After incubation with cell lysates, the coated antibody captures the phosphorylated Akt protein. Following extensive washing, Akt1 monoclonal antibody (Cell Signaling, USA; #2967) is added to detect the captured phospho-Akt1 protein. HRP-linked anti-mouse antibody (HRP: horseradish peroxidase; Cell Signaling, USA; #7076) is then used to recognize the bound detection antibody. HRP substrate (=3,3′,5,5′-tetramethylbenzidine (TMB); Cell Signaling, USA; #7160) is added to develop colour. The magnitude of optical density for this developed color is proportional to the quantity of phosphorylated Akt protein.
MCF7 cells (ATCC HTB-22) are seeded into 96 well fate bottom plates at a density of 10000 cells/well. 24 hours after seeding, the cells are serum starved using low-serum medium (IMEM media including 0.1% charcoal treated FCS (FCS: fetal calf serum)). After 24 hours 1 μl each of the compound dilutions (test compounds were dissolved as 10 mM solutions in dimethylsulfoxide (DMSO) and subsequently diluted) are added into each well of the 96 well plates and incubated for 48 h at 37° C. in a humidified atmosphere containing 5% CO2. To stimulate Akt phosphorylation, β-Heregulin (20 ng/ml β-HRG) is added in parallel to the compounds. Wells containing unstimulated control cells (no β-Heregulin stimulation) are incubated with or without the diluted compound. Wells containing untreated control cells (no compound) are filled with medium containing 0.5% v:v DMSO and are or are not stimulated with β-Heregulin.
Cells are harvested and lysed with brief sonification in 1× cell lysis buffer (20 mM Tris (pH7.5), 150 mM NaCl, 1 mM ethylene diaminetetraacetate (EDTA), 1 mM ethylene glycolbis(2-aminoethyl)-N,N,N′,N′-tetraacetic acid (EGTA), 1 vol % Triton X-100, 2.5 mM sodium pyrophosphate, 1 mM β-glycerolphosphate, 1 mM Na3VO4, 1 μg/ml leupeptin). The lysate is centrifuged for 10 min. at 4° C. and the supernatant is transferred to a new tube. 100 μl of sample diluent (0.1 vol % Tween-20, 0.1 vol % sodium azide in phosphate buffered saline (PBS)) are added to a microcentrifuge tube and 100 μl of cell lysate are transferred into the tube and vortexed. 100 μl of each diluted cell lysate are added to the appropriate ELISA well, and incubated overnight at 4° C. The plates are washed 4 times with 1× wash buffer (1 vol % tween-20, 0.33 vol % thymol, in PBS). Next 100 μl of detection antibody (Akt1 (2H10) monoclonal detection antibody; Cell Signaling, USA; #2967) are added to each well and incubation continued for 1 h at 37° C. The washing procedure is repeated between each step. 100 μl of secondary antibody (anti-mouse IgG HRP-linked antibody; Cell Signaling, USA; #7076) are added to each well and incubated for 30 min. at 37° C. Than, 100 μl of TMB substrate (0.05% 3,3′,5,5′ tetramethylbenzidine, 0.1% hydrogen peroxide, complex polypeptides in a buffered solution; Cell Signaling, USA; #7160) are added to each well and incubated for 30 min. at 25° C. Finally 100 μl of STOP solution (0.05 vol % α and β unsaturated carbonyl compound) are added to each well and the plate are shaked gently. The absorbance is measured at λ=450 nm (Wallac Victor2; Perkin Elmer, USA) within 30 min. after adding the STOP solution. The analysis of the data is performed using a statistical program (Excel; Microsoft, USA). Preferred compounds show an inhibitory activity towards Akt phosphorylation below 10 μM.

phospho-GSK3 (Ser9) = assay: Cellular pGSK3 assay (phospho-GSK3 ELISA); conditions: Homo sapiens, MCF7 cells, 48 h incubation, read-out: Cellular pGSK3 pathway assay
Description: In order to study the cellular activity of the compounds according to the present invention, an ELISA-based assay has been established for the phosphorylated protein glycogen synthetase kinase 3 (GSK3). The assay is based on a solid phase sandwich ELISA that detects endogenous levels of phosphorylated GSK3 using a phospho-GSK3 (Ser9) specific antibody (BioSource International, Inc.; Catalog #KHO0461). After incubation with cell lysates, the coated antibody captures the phosphorylated GSK3 protein. Following extensive washing, GSK3 polyclonal antibody is added to detect the captured phospho-GSK3 protein. Secondary antibody (anti-rabbit IgG-HRP) is then used to recognize the bound detection antibody. After the second incubation and washing to remove all the excess anti-rabbit IgG-HRP, a substrate solution is added, which is acted upon by the bound enzyme to produce color. The intensity of this colored product is directly proportional to the concentration of GSK-3β [pS9] present in the original specimen. MCF7 cells (ATCC HTB-22) were seeded into 96 well fate bottom plates at a density of 10000 cells/well. After 24 h 1 μl each of the compound dilutions (test compounds were dissolved as 10 mM solutions in dimethylsulfoxide (DMSO) and subsequently diluted) were added into each well of the 96 well plates and incubated for 48 h at 37° C. in a humidified atmosphere containing 5% CO2. Cells were harvested and lysed in cell extraction buffer (10 mM Tris, pH 7.4, 100 mM NaCl, 1 mM EDTA, 1 mM EGTA, 1 mM NaF, 20 mM Na4P2O7, 2 mM Na3VO4, 1% Triton X-100, 10 vol % glycerol, 0.1 vol % SDS, 0.5 vol % deoxycholate, 1 mM phenylmethylsulfonylfluoride (PMSF)). The lysate were centrifuged for 10 min. at 4° C. and the supernatant were transferred to a new tube. 50 μl of sample diluent (standard diluent buffer, Biosource) were added and 100 μl of cell lysate transferred into the tube and vortexed. 100 μl of each diluted cell lysate were added to the appropriate ELISA well plate and incubated for 3 h at room temperature. The plates were washed 4 times with 1× wash buffer (Biosource). 50 μl of detection antibody (GSK3 (Ser9) detection antibody; BioSource) were added to each well and incubated for 30 min. at room temperature. The washing procedure was repeated between each step. 100 μl of HRP-linked secondary antibody (anti-mouse IgG HRP-linked antibody) were added to each well and incubated for 30 min. at room temperature. 100 μl of TMB substrate (0.05 vol % 3,3′,5,5′ tetramethylbenzidine, 0.1 vol % hydrogen peroxide, complex polypeptides in a buffered solution; Biosource) were added to each well and incubated for 30 min. at room temperature. Finally 100 μl of Stop solution (0.05 vol % α and β unsaturated carbonyl compound) were added to each well and the plate were shaked gently for a few seconds. The absorbance was measured at λ=450 nm (Wallac Victor2; Perkin Elmer, USA) within 30 min. after adding the stop solution.
The analysis of the data was performed using a statistical program (Excel; Microsoft, USA) and the IC50 of pGSK3 inhibition was determined.

Compound	IC50 (A549 cells) [µM]	IC50 (OvCAR3 cells) [µM]	IC50 (phospho-Akt (Ser473)) [µM]	IC50 (phospho-GSK3 (Ser9)) [µM]
c1ccc(-c2cn3nccc3nc2-c2ccc(CN3CCC(c4n[nH]c(-c5ccccn5)n4)CC3)cc2)cc1 [Example 19, 6-phenyl-5-(4-{[4-(5-pyridin-2-yl-1,2,4-triazol-3-yl)piperidin-1-yl]methyl}phenyl)pyrazolo[1,5-a]pyrimidine]	> 10	< 10		
c1ccc(-c2cn3ccnc3nc2-c2ccc(CN3CCC(n4cnc(-c5ccccn5)c4)CC3)cc2)cc1 [Example 20, 6-phenyl-7-(4-{[4-(4-pyridin-2-yl-imidazol-1-yl)piperidin-1-yl]methyl}phenyl)imidazo[1,2-a]pyrimidine]	> 10	< 10		
c1ccc(-c2cn3ccnc3nc2-c2ccc(CN3CCC(c4n[nH]c(-c5cnccn5)n4)CC3)cc2)cc1 [Example 21, 6-phenyl-7-(4-{[4-(5-pyrazin-2-yl-1,2,4-triazol-3-yl)piperidin-1-yl]methyl}phenyl)imidazo[1,2-a]pyrimidine]	> 10	< 10		
CCc1cnc2nc(-c3ccc(CN4CCC(c5n[nH]c(-c6ccccn6)n5)CC4)cc3)c(-c3ccccc3)cn12 [Example 22, 3-ethyl-6-phenyl-7-(4-{[4-(5-pyridin-2-yl-1,2,4-triazol-3-yl)piperidin-1-yl]methyl}phenyl)imidazo[1,2-a]pyrimidine]	> 10	< 10		
FC(F)(F)c1cn2cc(-c3ccccc3)c(-c3ccc(CN4CCC(c5n[nH]c(-c6ccccn6)n5)CC4)cc3)nc2n1 [Example 26, 6-phenyl-7-(4-{[4-(5-pyridin-2-yl-1H-1,2,4-triazol-3-yl)piperidin-1-yl]methyl}phenyl)-2-(trifluoromethyl)imidazo[1,2-a]pyrimidine]	< 10		< 1	
CC(C)c1nc2nc(-c3ccc(CN4CCC(c5n[nH]c(-c6ccccn6)n5)CC4)cc3)c(-c3ccccc3)cn2n1 [Example 28, 2-Isopropyl-6-phenyl-5-(4-{[4-(5-pyridin-2-yl-1H-1,2,4-triazol-3-yl)piperidin-1-yl]methyl}phenyl)[1,2,4]triazolo[1,5-a]pyrimidine]	< 10			1 to 10
Cc1nc2nc(-c3ccc(CN4CCC(c5n[nH]c(-c6ccccn6)n5)CC4)cc3)c(-c3ccccc3)c(C)n2n1 [Example 39, 2,7-Dimethyl-6-phenyl-5-(4-{[4-(5-pyridin-2-yl-1H-1,2,4-triazol-3-yl)piperidin-1-yl]methyl}phenyl)[1,2,4]triazolo[1,5-a]pyrimidine]	< 10		< 1	
Cc1nc2nc(-c3ccc(CN4CCC(c5n[nH]c(-c6ncccn6)n5)CC4)cc3)c(-c3ccccc3)cn2n1 [Example 45, 2-Methyl-6-phenyl-5-(4-{[4-(5-pyrimidin-2-yl-1H-1,2,4-triazol-3-yl)piperidin-1-yl]methyl}phenyl)[1,2,4]triazolo[1,5-a]pyrimidine]	> 10		< 1	
Cc1cc2nc(-c3ccc(CN4CCC(c5n[nH]c(-c6ccccn6)n5)CC4)cc3)c(-c3ccccc3)c(C)n2n1 [Example 49, 2,7-Dimethyl-6-phenyl-5-(4-{[4-(5-pyridin-2-yl-1H-1,2,4-triazol-3-yl)piperidin-1-yl]methyl}phenyl)pyrazolo[1,5-a]pyrimidine]	< 10		< 1	
c1ccc(-c2nc(C3CCN(Cc4ccc(-c5nc6ccnn6cc5-c5ccsc5)cc4)CC3)n[nH]2)nc1 [Example 50, 5-(4-{[4-(5-Pyridin-2-yl-1H-1,2,4-triazol-3-yl)piperidin-1-yl]methyl}phenyl)-6-(3-thienyl)pyrazolo[1,5-a]pyrimidine]	< 10		< 1	
